Assays:
Assay type in all cases: functional
[1] = test system: Proteus vulgaris; test: Antibacterial activity against Proteus vulgaris ATCC 29905 after 24 hr by agar well diffusion method
[2] = test system: Priestia megaterium; test: Antibacterial activity against Bacillus megaterium ATCC 14518 after 24 hr by agar well diffusion method
[3] = test system: Staphylococcus aureus; test: Antibacterial activity against Staphylococcus aureus ATCC 25923 after 24 hr by agar well diffusion method
[4] = test system: Aspergillus niger; test: Antifungal activity against Aspergillus niger ATCC 9029 after 7 days by agar plate method
[5] = test system: Escherichia coli; test: Antibacterial activity against Escherichia coli ATCC 25922 after 24 hr by agar well diffusion method
[6] = test system: Mycobacterium tuberculosis; test: Growth inhibition of Mycobacterium tuberculosis H37Rv at 6.25 ug/ml by radiometric anlaysis; conditions: read-out: GI
[7] = test system: Mycobacterium tuberculosis; test: Growth inhibition of Mycobacterium tuberculosis H37Rv at 0.25 ug/ml by radiometric anlaysis; conditions: read-out: GI

Row | SMILES | inhibition zone (IZ) [1] | inhibition zone (IZ) [2] | inhibition zone (IZ) [3] | diameter of the inhibition zone (DIZ) [4] | inhibition zone (IZ) [5] | inhibition of growth at 6.25 µg/mL [6] | inhibition of growth at 0.25 µg/mL [7]
1 | CC1(C)S[C@@H]2[C@H](NC(=O)Cc3ccccc3)C(=O)N2[C@H]1C(=O)O [PENICILLIN G] | 23 mm | 25 mm | 24 mm | 0 mm | 22 mm | – | –
2 | CC(=O)N1N=C(c2cccc(N)c2)CC1c1ccc(-c2ccc(Cl)c(Cl)c2)o1 (configuration not stated) | 15 mm | 14 mm | 13 mm | 17 mm | 15 mm | 4% | –
3 | Nc1cccc(C(=O)/C=C/c2ccc(-c3ccc(Cl)c(Cl)c3)o2)c1 | 17 mm | 14 mm | 19 mm | 17 mm | 16 mm | – | –
4 | CC(=O)N1N=C(c2ccc(F)cc2)CC1c1ccc(-c2ccc(Cl)c(Cl)c2)o1 (configuration not stated) | 13 mm | 13 mm | 13 mm | 17 mm | 12 mm | 1% | –
5 | CC(=O)N1N=C(c2cccc([N+](=O)[O-])c2)CC1c1ccc(-c2ccc(Cl)c(Cl)c2)o1 (configuration not stated) | 13 mm | 13 mm | 14 mm | 17 mm | 17 mm | 6% | –
6 | CC(=O)N1N=C(c2ccc(Cl)cc2)CC1c1ccc(-c2ccc(Cl)c(Cl)c2)o1 (configuration not stated) | 18 mm | 21 mm | 16 mm | 21 mm | 19 mm | 17% | –
7 | CC(=O)N1N=C(c2ccc(N)cc2)CC1c1ccc(-c2ccc(Cl)c(Cl)c2)o1 (configuration not stated) | 12 mm | 17 mm | 17 mm | 19 mm | 17 mm | 74% | –
8 | CCn1cc(C(=O)O)c(=O)c2cc(F)c(N3CCNCC3)cc21 [NORFLOXACIN] | 21 mm | 23 mm | 19 mm | 0 mm | 20 mm | – | –
9 | O=C(/C=C/c1ccc(-c2ccc(Cl)c(Cl)c2)o1)c1ccc(F)cc1 | 14 mm | 17 mm | 12 mm | 14 mm | 16 mm | – | –
10 | COc1ccc(C2=NN(C(C)=O)C(c3ccc(-c4ccc(Cl)c(Cl)c4)o3)C2)cc1 (configuration not stated) | 14 mm | 12 mm | 19 mm | 19 mm | 20 mm | 0% | –
11 | CC1(C)S[C@@H]2[C@H](NC(=O)[C@H](N)c3ccc(O)cc3)C(=O)N2[C@H]1C(=O)O [AMOXICILLIN] | 20 mm | 24 mm | 22 mm | 0 mm | 18 mm | – | –
12 | CC(=O)N1N=C(c2ccc(C)cc2)CC1c1ccc(-c2ccc(Cl)c(Cl)c2)o1 (configuration not stated) | 19 mm | 19 mm | 21 mm | 20 mm | 12 mm | 0% | –
13 | O=C(/C=C/c1ccc(-c2ccc(Cl)c(Cl)c2)o1)c1ccccc1 | 15 mm | 20 mm | 14 mm | 19 mm | 19 mm | – | –
14 | Nc1ccc(C(=O)/C=C/c2ccc(-c3ccc(Cl)c(Cl)c3)o2)cc1 | 12 mm | 17 mm | 12 mm | 18 mm | 13 mm | – | –
15 | CO[C@H]1/C=C/O[C@@]2(C)Oc3c(C)c(O)c4c(O)c(c(/C=N/N5CCN(C)CC5)c(O)c4c3C2=O)NC(=O)/C(C)=C\C=C\[C@H](C)[C@H](O)[C@@H](C)[C@@H](O)[C@@H](C)[C@H](OC(C)=O)[C@@H]1C [RIFAMPIN] | – | – | – | – | – | – | 98%
16 | O=C(/C=C/c1ccc(-c2ccc(Cl)c(Cl)c2)o1)c1cccc([N+](=O)[O-])c1 | 17 mm | 19 mm | 16 mm | 17 mm | 11 mm | – | –
17 | O=C(/C=C/c1ccc(-c2ccc(Cl)c(Cl)c2)o1)c1ccc(Br)cc1 | 16 mm | 21 mm | 19 mm | 21 mm | 20 mm | – | –
18 | O=C(/C=C/c1ccc(-c2ccc(Cl)c(Cl)c2)o1)c1ccccc1O | 11 mm | 12 mm | 16 mm | 18 mm | 14 mm | – | –
19 | O=C(/C=C/c1ccc(-c2ccc(Cl)c(Cl)c2)o1)c1ccc(Cl)cc1 | 15 mm | 15 mm | 20 mm | 14 mm | 14 mm | – | –
20 | CC(=O)N1N=C(c2ccccc2O)CC1c1ccc(-c2ccc(Cl)c(Cl)c2)o1 (configuration not stated) | 11 mm | 18 mm | 16 mm | 15 mm | 13 mm | 11% | –
21 | CC(=O)N1N=C(c2ccc(Br)cc2)CC1c1ccc(-c2ccc(Cl)c(Cl)c2)o1 (configuration not stated) | 19 mm | 20 mm | 12 mm | 18 mm | 11 mm | 6% | –
22 | O=C(/C=C/c1ccc(-c2ccc(Cl)c(Cl)c2)o1)c1ccc([N+](=O)[O-])cc1 | 15 mm | 11 mm | 17 mm | 19 mm | 12 mm | – | –
23 | CC(=O)N1N=C(c2ccccc2)CC1c1ccc(-c2ccc(Cl)c(Cl)c2)o1 (configuration not stated) | 17 mm | 17 mm | 20 mm | 13 mm | 18 mm | 0% | –
24 | CC1(C)S[C@@H]2[C@H](NC(=O)[C@H](N)c3ccccc3)C(=O)N2[C@H]1C(=O)O [AMPICILLIN] | 17 mm | 22 mm | 20 mm | 0 mm | 19 mm | – | –
25 | COc1ccc(C(=O)/C=C/c2ccc(-c3ccc(Cl)c(Cl)c3)o2)cc1 | 19 mm | 13 mm | 20 mm | 19 mm | 12 mm | – | –
26 | COC1=CC(=O)C[C@@H](C)[C@]12Oc1c(Cl)c(OC)cc(OC)c1C2=O [GRISEOFULVIN] | 0 mm | 0 mm | 0 mm | 26 mm | 0 mm | – | –
27 | Cc1ccc(C(=O)/C=C/c2ccc(-c3ccc(Cl)c(Cl)c3)o2)cc1 | 14 mm | 22 mm | 13 mm | 13 mm | 19 mm | – | –
28 | CC(=O)N1N=C(c2ccc([N+](=O)[O-])cc2)CC1c1ccc(-c2ccc(Cl)c(Cl)c2)o1 (configuration not stated) | 14 mm | 16 mm | 12 mm | 13 mm | 14 mm | 19% | –

From ChEMBL document CHEMBL3046874, “Synthesis and biological evaluation of chalcones and acetyl pyrazoline derivatives comprising furan nucleus as an antitubercular agents” (2012)
